In assay [1] the test system is harmful plants such as Sinapis alba, Echinochloa crus-galli, Lolium multiflorum, Stellaria media, Cyperus iria, Amaranthus retroflexus, Setaria viridis, Avena …. Description: Post-emergence effect on weeds (greenhouse pot test). Particulars: application rate of 2 kg or less of active ingredient per hectare; treated in the three-leaf stage; scored after approx. 3 to 4 weeks by comparison with untreated controls. Format: in vivo.

In assay [2] the test system is harmful plants such as Stellaria media, Lolium multiforum, Amaranthus retroflexus, Sinapis alba, Avena sativa and Setaria viridis. Description: Pre-emergence effect on weeds (greenhouse pot test). Format: in vivo. The following applies: application rate of 1 kg or less of active ingredient per hectare; scored after 3 to 4 weeks by comparison with untreated controls. The text has this: Seeds or rhizome pieces of monocotyledonous and dicotyledonous weed plants were placed in sandy loam in plastic pots and covered with soil. The compounds according to the invention, which were formulated in the form of wettable powders or emulsion concentrates, were then applied to the surface of the soil cover as aqueous suspension or emulsion at various dosages with an application rate of 600 to 800 l of water per ha (converted).
After the treatment, the pots were placed into a greenhouse and kept under good growth conditions for the weeds. The plant or emergence damage was scored visually after the test plants have emerged after an experimental time of 3 to 4 weeks by comparison with untreated controls.

This is an account of results in patent US8114991B2, “Amino-1,3,5-triazines N-substituted with chiral bicyclic radicals, process for their preparation, compositions thereof, and their use as herbicides and plant growth regulators” (Bayer Cropscience AG, priority 2003, dated 2012).

With `C[C@H](Cl)c1nc(N)nc(N[C@@H]2CCc3ccccc32)n1` [Compound 3.24], the “herbicidal post-emergence activity against harmful plants (scored visually)” value (“herbicidal post-emergence activity” for short) in assay [1] is “very good herbicidal post-emergence activity”. Besides, the “pre-emergence control of harmful plants (plant or emergence damage scored visually)” value (“pre-emergence control of harmful plants” for short) in assay [2] is listed as “very good pre-emergence control”.

With `C[C@H](F)c1nc(N)nc(N[C@H]2c3ccccc3C[C@@H]2C)n1` [Compound 4.1], the “herbicidal post-emergence activity” value in assay [1] is “very good herbicidal post-emergence activity”. For the same compound, the “pre-emergence control of harmful plants” value in assay [2] is listed as “very good pre-emergence control”.

Take `Cc1ccc2c(c1)CC(C)C2Nc1nc(N)nc(C(C)F)n1` (stereo not drawn) [Compound 4.2]: the “herbicidal post-emergence activity” value in assay [1] is on record as “very good herbicidal post-emergence activity”. In assay [2], the “pre-emergence control of harmful plants” value was “very good pre-emergence control”.

With `C[C@@H]1Cc2ccccc2[C@@H]1Nc1nc(N)nc([C@@H](C)F)n1` [Compound 5.1], the “herbicidal post-emergence activity” value in assay [1] is “very good herbicidal post-emergence activity”. Besides, the “pre-emergence control of harmful plants” value in assay [2] is listed as “very good pre-emergence control”.

On to `Cc1ccc2c(c1)[C@H](Nc1nc(N)nc([C@@H](C)F)n1)[C@H](C)C2` [Compound 5.2], for which the “herbicidal post-emergence activity” value in assay [1] is listed as “very good herbicidal post-emergence activity”. In addition, in assay [2], the “pre-emergence control of harmful plants” value is listed as “very good pre-emergence control”.

In the case of `CC(F)c1nc(N)nc(NC2c3ccccc3CC2C)n1` (stereo not drawn) [Compound 6.1], the “herbicidal post-emergence activity” value in assay [1] was “very good herbicidal post-emergence activity”. For the same compound, the “pre-emergence control of harmful plants” value in assay [2] was “very good pre-emergence control”.

As for `Cc1ccc2c(c1)C(Nc1nc(N)nc(C(C)F)n1)C(C)C2` (stereo not drawn) [Compound 6.2], in assay [1], the “herbicidal post-emergence activity” value is “very good herbicidal post-emergence activity”. The “pre-emergence control of harmful plants” value in assay [2] is recorded as “very good pre-emergence control”.

In the case of `Cc1nc(N)nc(N[C@H]2c3ccccc3C[C@@H]2C)n1` [Compound 7.1], in assay [1], the “herbicidal post-emergence activity” value was “very good herbicidal post-emergence activity”. Besides, in assay [2], the “pre-emergence control of harmful plants” value was “very good pre-emergence control”.

Turning to `Cc1ccc2c(c1)[C@H](Nc1nc(C)nc(N)n1)[C@@H](C)C2` [Compound 7.2], the “herbicidal post-emergence activity” value in assay [1] is “very good herbicidal post-emergence activity”. Moreover, the “pre-emergence control of harmful plants” value in assay [2] is reported as “very good pre-emergence control”.

Regarding `Cc1nc(N)nc(N[C@H]2c3cc(F)ccc3C[C@@H]2C)n1` [Compound 7.3], the “herbicidal post-emergence activity” value in assay [1] is “very good herbicidal post-emergence activity”. Further, the “pre-emergence control of harmful plants” value in assay [2] was “very good pre-emergence control”.

Regarding `Cc1nc(N)nc(N[C@H]2c3cc(Cl)ccc3C[C@@H]2C)n1` [Compound 7.4], the “herbicidal post-emergence activity” value in assay [1] was “very good herbicidal post-emergence activity”. In addition, in assay [2], the “pre-emergence control of harmful plants” value was “very good pre-emergence control”.

Regarding `Cc1nc(N)nc(N[C@H]2c3ccccc3CC[C@@H]2C)n1` [Compound 7.11], the “herbicidal post-emergence activity” value in assay [1] is on record as “very good herbicidal post-emergence activity”. Further, in assay [2], the “pre-emergence control of harmful plants” value is recorded as “very good pre-emergence control”.

As for `CC(C)c1nc(N)nc(N[C@H]2c3ccccc3C[C@@H]2C)n1` [Compound 7.24], the “herbicidal post-emergence activity” value in assay [1] is “very good herbicidal post-emergence activity”. Also, in assay [2], the “pre-emergence control of harmful plants” value is reported as “very good pre-emergence control”.

Take `CCCc1nc(N)nc(N[C@H]2c3ccccc3C[C@@H]2C)n1` [Compound 7.47]: in assay [1], the “herbicidal post-emergence activity” value is reported as “very good herbicidal post-emergence activity”. Besides, the “pre-emergence control of harmful plants” value in assay [2] is reported as “very good pre-emergence control”.

With `CCCc1nc(N)nc(N[C@H]2c3cc(C)ccc3C[C@@H]2C)n1` [Compound 7.48], the “herbicidal post-emergence activity” value in assay [1] is “very good herbicidal post-emergence activity”. Further, the “pre-emergence control of harmful plants” value in assay [2] was “very good pre-emergence control”.

`CCCc1nc(N)nc(N[C@H]2c3ccccc3CC[C@@H]2C)n1` [Compound 7.57]: the “herbicidal post-emergence activity” value in assay [1] is given as “very good herbicidal post-emergence activity”. In addition, the “pre-emergence control of harmful plants” value in assay [2] is on record as “very good pre-emergence control”.

For the compound `COCc1nc(N)nc(N[C@H]2c3ccccc3C[C@@H]2C)n1` [Compound 7.70], the “herbicidal post-emergence activity” value in assay [1] was “very good herbicidal post-emergence activity”. For the same compound, the “pre-emergence control of harmful plants” value in assay [2] is on record as “very good pre-emergence control”.

With `COCc1nc(N)nc(N[C@H]2c3cc(C)ccc3C[C@@H]2C)n1` [Compound 7.72], in assay [1], the “herbicidal post-emergence activity” value is listed as “very good herbicidal post-emergence activity”. Also, the “pre-emergence control of harmful plants” value in assay [2] is given as “very good pre-emergence control”.

Regarding `CCc1nc(N)nc(N[C@H]2c3ccccc3C[C@@H]2C)n1` [Compound 7.74], the “herbicidal post-emergence activity” value in assay [1] is “very good herbicidal post-emergence activity”. Moreover, the “pre-emergence control of harmful plants” value in assay [2] was “very good pre-emergence control”.

As to `CCc1nc(N)nc(N[C@H]2c3cc(C)ccc3C[C@@H]2C)n1` [Compound 7.75], in assay [1], the “herbicidal post-emergence activity” value is on record as “very good herbicidal post-emergence activity”. The “pre-emergence control of harmful plants” value in assay [2] is recorded as “very good pre-emergence control”.

Turning to `CCc1nc(N)nc(N[C@H]2c3ccccc3CC[C@@H]2C)n1` [Compound 7.78], in assay [1], the “herbicidal post-emergence activity” value was “very good herbicidal post-emergence activity”. Besides, in assay [2], the “pre-emergence control of harmful plants” value is recorded as “very good pre-emergence control”.

For the compound `C[C@H]1CCc2ccccc2[C@@H]1Nc1nc(N)nc(C(C)(C)F)n1` [Compound 7.203], the “herbicidal post-emergence activity” value in assay [1] is “very good herbicidal post-emergence activity”. The “pre-emergence control of harmful plants” value in assay [2] is “very good pre-emergence control”.

Take `C[C@H]1Cc2ccccc2[C@@H]1Nc1nc(N)nc(C(C)(C)F)n1` [Compound 7.228]: in assay [1], the “herbicidal post-emergence activity” value was “very good herbicidal post-emergence activity”. Besides, the “pre-emergence control of harmful plants” value in assay [2] was “very good pre-emergence control”.

On to `Cc1ccc2c(c1)[C@H](Nc1nc(N)nc(C(C)(C)F)n1)[C@@H](C)C2` [Compound 7.229], for which the “herbicidal post-emergence activity” value in assay [1] was “very good herbicidal post-emergence activity”. The “pre-emergence control of harmful plants” value in assay [2] is given as “very good pre-emergence control”.

Consider `Cc1ccc2c(c1)[C@H](Nc1nc(N)nc(CCSC(F)(F)F)n1)[C@@H](C)C2` [Compound 7.238], for which the “herbicidal post-emergence activity” value in assay [1] is reported as “very good herbicidal post-emergence activity”. For the same compound, the “pre-emergence control of harmful plants” value in assay [2] was “very good pre-emergence control”.

With `C[C@H]1Cc2ccccc2[C@@H]1Nc1nc(N)nc(C(F)(F)F)n1` [Compound 7.239], the “herbicidal post-emergence activity” value in assay [1] is “very good herbicidal post-emergence activity”. The “pre-emergence control of harmful plants” value in assay [2] is “very good pre-emergence control”.

In the case of `Cc1ccc2c(c1)[C@H](Nc1nc(N)nc(C(F)(F)F)n1)[C@@H](C)C2` [Compound 7.240], the “herbicidal post-emergence activity” value in assay [1] is given as “very good herbicidal post-emergence activity”. Also, the “pre-emergence control of harmful plants” value in assay [2] is listed as “very good pre-emergence control”.

For `C[C@H]1Cc2ccccc2[C@@H]1Nc1nc(N)nc(CCSC(F)(F)F)n1` [Compound 7.241], the “herbicidal post-emergence activity” value in assay [1] is recorded as “very good herbicidal post-emergence activity”. For the same compound, the “pre-emergence control of harmful plants” value in assay [2] was “very good pre-emergence control”.

With `C[C@H]1Cc2ccccc2[C@@H]1Nc1nc(N)nc(CC#N)n1` [Compound 7.242], in assay [1], the “herbicidal post-emergence activity” value is recorded as “very good herbicidal post-emergence activity”. In addition, the “pre-emergence control of harmful plants” value in assay [2] is “very good pre-emergence control”.

As for `C[C@H]1Cc2ccccc2[C@@H]1Nc1nc(N)nc(C(F)F)n1` [Compound 7.244], the “herbicidal post-emergence activity” value in assay [1] was “very good herbicidal post-emergence activity”. For the same compound, the “pre-emergence control of harmful plants” value in assay [2] was “very good pre-emergence control”.

Take `Cc1ccc2c(c1)[C@H](Nc1nc(C)nc(N)n1)CC2` [Compound 8.2]: the “herbicidal post-emergence activity” value in assay [1] is recorded as “very good herbicidal post-emergence activity”. The “pre-emergence control of harmful plants” value in assay [2] was “very good pre-emergence control”.

For `Cc1nc(N)nc(N[C@@H]2CCc3ccc(F)cc32)n1` [Compound 8.3], the “herbicidal post-emergence activity” value in assay [1] is recorded as “very good herbicidal post-emergence activity”. For the same compound, in assay [2], the “pre-emergence control of harmful plants” value was “very good pre-emergence control”.

Turning to `Cc1nc(N)nc(N[C@@H]2CCc3cc(C)c(C)cc32)n1` [Compound 8.7], the “herbicidal post-emergence activity” value in assay [1] is listed as “very good herbicidal post-emergence activity”. The “pre-emergence control of harmful plants” value in assay [2] is reported as “very good pre-emergence control”.
